These results are taken from patent US11773352B2, “Hydrochlorofluoroolefins and methods of using same” (3M INNOVATIVE PROPERTIES COMPANY, priority 2018, dated 2023).

Data set [1] is described as follows: Largest Soluble Hydrocarbon (LSH) test. It counts as physicochemical. The following applies: compound:hydrocarbon about 1:1 to 1:2 by weight. The method, then: Largest Soluble Hydrocarbon (LSH): The LSH of each hydrofluoroolefin compound was determined by mixing the compound with hydrocarbons of varying molecular weight (CnH2n+2, where n=9 to 24) in a hydrofluoroolefin:hydrocarbon ratio of about 1:1 to 1:2 by weight at room temperature (25° C.) and at 50° C. […] A larger value of n is interpreted herein to indicate a greater ability of the hydrofluoroolefin to clean hydrocarbons.
The results presented in Table 2 indicate that the hydrofluoroolefins of the present invention are highly suitable fluids for cleaning applications.

Data set [2] in a line: Atmospheric lifetime from rate of reaction with hydroxyl radicals. It counts as physicochemical. The following applies: gas phase, relative to reference compounds such as chloromethane and ethane, FTIR. The protocol:
Atmospheric lifetime: The atmospheric lifetime of Example 1 was determined from the rate of reaction with hydroxyl radicals. The pseudo-first order rate for the reaction of the gaseous hydrobromofluoroolefin with hydroxyl radical was measured in a series of experiments relative to reference compounds such as chloromethane and ethane. The measurements were performed in a 5.7 L, heated FTIR gas cell equipped with a polished semiconductor-grade quartz window. An Oriel Instruments UV Lamp, Model 66921 equipped with a 480 W mercury-xenon bulb was used to generate hydroxyl radicals by photolyzing ozone in the presence of water vapor. The concentrations of the hydrobromofluoroolefin and the reference compound were measured as a function of reaction time using an I-Series FTIR from Midac Corporation, Westfield, Mass., US. The atmospheric lifetime was calculated from the reaction rates for the hydrobromofluoroolefin relative to the reference compounds and the reported lifetime of the reference compounds as shown below:
[formula] where τx is the atmospheric lifetime of hydrobromofluoroolefin, τr is the atmospheric lifetime of the reference compound, and kx and kr are the rate constants for the reaction of hydroxyl radical with hydrobromofluoroolefin and the reference compound, respectively. Sample Preparation

Where [3] appears, read: 25° C., longest hydrocarbon compatible without haze.
Setting [4] is: 50° C., largest hydrocarbon used C-23.

Consider `COC(=C(Cl)C(F)(F)F)C(F)(F)F` [Example 1, 2-Chloro-1,1,1,4,4,4-hexafluoro-3-methoxybut-2-ene], for which the results for the “LSH (n in CnH2n+2)” value in data set [1] (setting [3]) and in data set [1] (setting [4]) were 19 and over 23, respectively. The compound further showed an atmospheric lifetime in data set [2] of 0.04 years.

With `COC1=C(Cl)C(F)(F)C(F)(F)C1(F)F` [Example 4, 1-Chloro-3,3,4,4,5,5-hexafluoro-2-methoxycyclopent-1-ene], the figures for the “LSH (n in CnH2n+2)” value in data set [1] (setting [3]) and in data set [1] (setting [4]) were 19 and over 23, respectively.
